Laboratory results as given in ChEMBL document CHEMBL1201862, “PubChem BioAssay data set” (2004).
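Following 48 hours of exposure in 96-well plates, responses at five concentrations were used to interpolate endpoints linearly. Here, GI50 denotes the concentration required for 50% inhibition of growth.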 Calls of active or inactive are those of the source. Cut-off read from the data, not from the text of the source: active = GI50 up to about 1.1 µM and inactive = higher.

Experiments:
Assay in all cases: inhibition of tumour cell growth, NCI panel, 48 h
KM12 = test system: KM12
IGROV-1 = test system: IGROV-1
UO-31 = test system: UO-31
SK-MEL-5 = test system: SK-MEL-5
OVCAR-5 = test system: OVCAR-5
SF-268 = test system: SF-268
MOLT-4 = test system: MOLT-4
HL-60 = test system: HL-60
RXF 393 = test system: RXF 393
T47D = test system: T47D
Hs-578T = test system: Hs-578T
MCF7 = test system: MCF7
ACHN = test system: ACHN
SF-539 = test system: SF-539
CCRF-CEM = test system: CCRF-CEM
M14 = test system: M14
COLO 205 = test system: COLO 205
HT-29 = test system: HT-29
HOP-62 = test system: HOP-62
CAKI-1 = test system: CAKI-1
OVCAR-4 = test system: OVCAR-4
LOX IMVI = test system: LOX IMVI
UACC-62 = test system: UACC-62
NCI/ADR-RES = test system: NCI/ADR-RES
NCI-H460 = test system: NCI-H460
RPMI-8226 = test system: RPMI-8226
MDA-N = test system: MDA-N
TK-10 = test system: TK-10
MDA-MB-435 = test system: MDA-MB-435
786-0 = test system: 786-0
EKVX = test system: EKVX
SN12C = test system: SN12C
NCI-H522 = test system: NCI-H522
NCI-H226 = test system: NCI-H226
HCT-116 = test system: HCT-116
SK-OV-3 = test system: SK-OV-3
HOP-92 = test system: HOP-92
DU-145 = test system: DU-145
OVCAR-3 = test system: OVCAR-3
OVCAR-8 = test system: OVCAR-8
HCT-15 = test system: HCT-15
A498 = test system: A498
SF-295 = test system: SF-295
UACC-257 = test system: UACC-257
SNB-75 = test system: SNB-75
HCC 2998 = test system: HCC 2998
SW-620 = test system: SW-620
K562 = test system: K562
NCI-H23 = test system: NCI-H23
SK-MEL-2 = test system: SK-MEL-2
SK-MEL-28 = test system: SK-MEL-28
U-251 = test system: U-251
A549 = test system: A549
SNB-19 = test system: SNB-19
Malme-3M = test system: Malme-3M
MDA-MB-231 = test system: MDA-MB-231
SR = test system: SR
PC-3 = test system: PC-3

## O=C1C2CCCC2N1Cc1ccccc1 (stereo not given)
KM12
  GI50: > 100 µM (inactive)
IGROV-1
  GI50: > 100 µM (inactive)
UO-31
  GI50: 15.1 µM (inactive)
SK-MEL-5
  GI50: > 100 µM (inactive)
OVCAR-5
  GI50: > 100 µM (inactive)
SF-268
  GI50: > 100 µM (inactive)
MOLT-4
  GI50: > 100 µM (inactive)
HL-60
  GI50: > 100 µM (inactive)
RXF 393
  GI50: > 100 µM (inactive)
T47D
  GI50: > 100 µM (inactive)
Hs-578T
  GI50: > 100 µM (inactive)
MCF7
  GI50: > 100 µM (inactive)
ACHN
  GI50: > 100 µM (inactive)
SF-539
  GI50: > 100 µM (inactive)
CCRF-CEM
  GI50: > 100 µM (inactive)
M14
  GI50: 13.6 µM (inactive)
COLO 205
  GI50: > 100 µM (inactive)
HT-29
  GI50: > 100 µM (inactive)
HOP-62
  GI50: > 100 µM (inactive)
CAKI-1
  GI50: > 100 µM (inactive)
OVCAR-4
  GI50: 23.3 µM (inactive)
LOX IMVI
  GI50: > 100 µM (inactive)
UACC-62
  GI50: > 100 µM (inactive)
NCI/ADR-RES
  GI50: > 100 µM (inactive)
NCI-H460
  GI50: > 100 µM (inactive)
RPMI-8226
  GI50: > 100 µM (inactive)
MDA-N
  GI50: > 100 µM (inactive)
TK-10
  GI50: > 100 µM (inactive)
MDA-MB-435
  GI50: > 100 µM (inactive)
786-0
  GI50: > 100 µM (inactive)
EKVX
  GI50: > 100 µM (inactive)
SN12C
  GI50: > 100 µM (inactive)
NCI-H522
  GI50: > 100 µM (inactive)
NCI-H226
  GI50: > 100 µM (inactive)
HCT-116
  GI50: > 100 µM (inactive)
SK-OV-3
  GI50: > 100 µM (inactive)
HOP-92
  GI50: > 100 µM (inactive)
DU-145
  GI50: > 100 µM (inactive)
OVCAR-3
  GI50: > 100 µM (inactive)
OVCAR-8
  GI50: > 100 µM (inactive)
HCT-15
  GI50: > 100 µM
A498
  GI50: > 100 µM (inactive)
SF-295
  GI50: > 100 µM (inactive)
UACC-257
  GI50: > 100 µM (inactive)
SNB-75
  GI50: 49.5 µM (inactive)
HCC 2998
  GI50: > 100 µM (inactive)
SW-620
  GI50: > 100 µM (inactive)
K562
  GI50: > 100 µM (inactive)
NCI-H23
  GI50: > 100 µM (inactive)

## C=C(C)[C@@H]1CCC2=C[C@H](OC2=O)[C@@]2(C)C[C@@H]2C2=CC(C)=C(O2)[C@H]1O
KM12
  GI50: 25.5 µM (inactive)
IGROV-1
  GI50: 21.3 µM (inactive)
UO-31
  GI50: 60.8 µM (inactive)
OVCAR-5
  GI50: > 75 µM (inactive)
SK-MEL-2
  GI50: 40.8 µM (inactive)
SF-268
  GI50: 30.7 µM (inactive)
MOLT-4
  GI50: 24.8 µM (inactive)
HL-60
  GI50: 46.6 µM (inactive)
RXF 393
  GI50: 38.5 µM (inactive)
T47D
  GI50: 28.1 µM (inactive)
MCF7
  GI50: 53.2 µM (inactive)
SK-MEL-28
  GI50: 46 µM (inactive)
U-251
  GI50: > 75 µM (inactive)
ACHN
  GI50: 36.9 µM (inactive)
SF-539
  GI50: 49.8 µM (inactive)
CCRF-CEM
  GI50: 37.4 µM (inactive)
M14
  GI50: 68.4 µM (inactive)
COLO 205
  GI50: 33.2 µM (inactive)
HT-29
  GI50: 23 µM (inactive)
HOP-62
  GI50: > 75 µM (inactive)
CAKI-1
  GI50: 21.5 µM (inactive)
OVCAR-4
  GI50: 42.2 µM (inactive)
A549
  GI50: 39 µM (inactive)
LOX IMVI
  GI50: 27.1 µM (inactive)
UACC-62
  GI50: 41.1 µM (inactive)
NCI/ADR-RES
  GI50: 23.6 µM (inactive)
NCI-H460
  GI50: 54.3 µM (inactive)
MDA-N
  GI50: 23.4 µM (inactive)
TK-10
  GI50: 38.7 µM (inactive)
MDA-MB-435
  GI50: 30.6 µM (inactive)
786-0
  GI50: 21.8 µM (inactive)
EKVX
  GI50: 36.8 µM (inactive)
SN12C
  GI50: 25.5 µM (inactive)
NCI-H522
  GI50: 15.1 µM (inactive)
NCI-H226
  GI50: 27.7 µM (inactive)
HCT-116
  GI50: 22.3 µM (inactive)
SK-OV-3
  GI50: 54.5 µM (inactive)
HOP-92
  GI50: > 75 µM (inactive)
DU-145
  GI50: 37.3 µM (inactive)
SNB-19
  GI50: > 75 µM (inactive)
Malme-3M
  GI50: 48.9 µM (inactive)
OVCAR-3
  GI50: 43.4 µM (inactive)
MDA-MB-231
  GI50: 28.2 µM (inactive)
OVCAR-8
  GI50: 25.1 µM (inactive)
HCT-15
  GI50: 36.4 µM
A498
  GI50: > 75 µM (inactive)
SR
  GI50: > 75 µM (inactive)
PC-3
  GI50: 33.9 µM (inactive)
SF-295
  GI50: 33.3 µM (inactive)
UACC-257
  GI50: 39.1 µM (inactive)
SNB-75
  GI50: 35.5 µM (inactive)
HCC 2998
  GI50: > 75 µM (inactive)
SW-620
  GI50: > 75 µM (inactive)
K562
  GI50: > 75 µM (inactive)
NCI-H23
  GI50: 25.9 µM (inactive)

## CCN(CC)C(=S)SS(=O)(=O)c1ccc(N)cc1
KM12
  GI50: 29.6 µM (inactive)
IGROV-1
  GI50: 4.91 µM (inactive)
UO-31
  GI50: > 89.5 µM (inactive)
SK-MEL-5
  GI50: 15.2 µM (inactive)
OVCAR-5
  GI50: > 100 µM (inactive)
SK-MEL-2
  GI50: > 100 µM (inactive)
MOLT-4
  GI50: 2.3 µM (inactive)
RXF 393
  GI50: 31.8 µM (inactive)
T47D
  GI50: 76.7 µM (inactive)
Hs-578T
  GI50: > 91 µM (inactive)
MCF7
  GI50: 7.29 µM (inactive)
ACHN
  GI50: > 78.3 µM (inactive)
M14
  GI50: 70 µM (inactive)
HT-29
  GI50: > 100 µM (inactive)
HOP-62
  GI50: > 58.2 µM (inactive)
CAKI-1
  GI50: > 46.9 µM (inactive)
A549
  GI50: 14.5 µM (inactive)
UACC-62
  GI50: 39.4 µM (inactive)
NCI-H460
  GI50: 87.1 µM (inactive)
RPMI-8226
  GI50: 22.8 µM (inactive)
MDA-N
  GI50: 70.5 µM (inactive)
EKVX
  GI50: > 100 µM (inactive)
NCI-H522
  GI50: 3.68 µM (inactive)
SK-OV-3
  GI50: > 100 µM (inactive)
HOP-92
  GI50: > 23.1 µM (inactive)
SNB-19
  GI50: > 100 µM (inactive)
A498
  GI50: > 40.2 µM (inactive)
SR
  GI50: 3.41 µM (inactive)
HCC 2998
  GI50: > 29.1 µM (inactive)
K562
  GI50: 39.5 µM (inactive)
NCI-H23
  GI50: > 100 µM (inactive)
